Where “and” joins values, the source holds several entries; their conditions need not be identical. Equal entries are not always repeated. Entries after “also recorded” stand apart in the source; their conditions may differ. Marks after values point to notes of the source that are not given here.
What was measured:
Type in all cases: cell-based, human
[1] = system: peripheral blood CD3+ T cells; assay: TCR/CD3 (anti-CD3) stimulated T cell proliferation, [3H]-thymidine incorporation
Procedure: (§1) Human peripheral blood CD3+ T cells were purified by negative selection from 50 ml of heparin-treated blood from normal healthy donors (Ullevaal University Hospital Blood Center, Oslo. Norway) or patients. Briefly, peripheral blood mononuclear cells were isolated by density gradient (Lymphoprep, NycoMed, Oslo, Norway) centrifugation followed by negative selection using monodisperse magnetic beads directly coated with antibodies to CD14 and CD19 and rat anti-mouse IgG beads coated with antibodies to CD56 and a magnet. Magnetic beads were all from Dynal (Oslo, Norway, cat. no. 111.12, 111.04, and 110.11. respectively) whereas anti-CD56 antibody was from Pharmingen (San Diego, Calif., cat. no. 31660.d). All steps were performed at 4° C.
as §1, with “Peripheral blood” for “Human peripheral blood”, “Center, Oslo,” for “Center, Oslo.”, “selection using,” for “selection using”, “and 110.11,” for “and 110.11.”, “Calif., eat.” for “Calif., cat.”
Proliferation assays were performed by incubation of 0.75×10^6 CM+ T cells/ml in a 100 μl volume in that-bottom 96-well microtiter plates. Activation was achieved by subsequent addition of monodisperse magnetic beads coated with sheep anti-mouse IgG (Dynal. cat. no. 110.02) at a cell:bead ratio of 1:1 followed by addition of antiCD3 (clone SpvT3b) at a final dilution of 1:125,000 for the experiments shown. The optimal concentration of antibody was titrated carefully in the initial setup and parallel experiments at several different dilutions of antibody was always performed. Proliferation was analyzed by incubating, cells for 72 hours during which [^3H]thymidine was included for the last 16 hours. Cells were washed and harvested onto filters using a Scatron harvester (Suffolk, UK) and subsequently analyzed by β-scintillation counting. cAMP analogs, when used, were added 30 min prior to activation by addition of […] antibodies. 8-CPT-cAMP was from Sigorna (St. Louis, Mo.) and Sp- and Rp-8-Br-cAMPS were from BioLog Life Science Company (Bremen, Germany) and were all dissolved to concentrations of 4 to 10 mM in PBS and concentrations calculated using the extinction coefficients given by the manufacturer.

PBMC = assay: anti-CD3 stimulated proliferation of PBMC
Procedure: Whereas more than 100% increase in anti-CD3 induced lymphocyte proliferation was found in 7 of the CVI patients, 5 of the patients had less than 40% increase in proliferation when the cAMP antagonist was added to cells in vitro.

CD4+ T lymphocytes = assay: BrdU incorporation (DNA synthesis) by flow cytometry, CD4+ subset
Procedure: (§2) We next, by flow cytometry analysis of BrdU incorporation, examined anti-CD3 stimulated T lymphocyte DNA synthesis in the presence and absence of Rp-8-Br-cAMPS in subsets of CD4^+ and CD8^+ T lymphocytes in 8 CVI patients with impaired lymphocyte function and 7 controls. In CVI patients there was a significant increase in percent of BrdU^+ CD4^+ T lymphocytes when cAMP antagonist was added to cell culture [55.8 (40.7–77.0)% versus 69.6 (50.5–90.0)%, without and with antagonist, respectively, P<0.03]. In most patients the maximal increase was found at the highest concentration of Rp-8-Br-cAMPS (1000 μM).

CD8+ T lymphocytes = assay: BrdU incorporation (DNA synthesis) by flow cytometry, CD8+ subset; settings: CVI patients and controls
Procedure: as §2

IL-2 = IL-2 levels in supernatants from anti-CD3 stimulated T lymphocytes (ELISA)
Procedure: After 20 h of culture, cellfree supernatants were harvested and stored at −80° C. until analysis. The IL-2 levels in supernatants were determined by an ELISA ([…], Minneapolis, Minn.).

IL-2 receptor = IL-2 receptor binding in anti-CD3 stimulated T cells (flow cytometry)
[2] = median in 7 CVI patients, 1000 μM
[3] = median in 8 healthy controls, most pronounced effect at 100 μM

SMILES: Nc1ncnc2c1nc(Br)n2C1OC2COP(O)(=S)OC2C1O (stereo not drawn) [Rp-8-Br-cAMPS, Rp-8-Bromo-cAMP-phosphorothioate]
- Proliferation level relative to levels in healthy controls ([1]; CVI patients' T cells with Rp-8-Br-cAMPS): ~25%
- IL-2 concentration with enhancing effect comparable to that of cAMP antagonist ([1]; CVI patients, FIG. 7): ~15 ng/mL
- Combined enhancing effects of Rp-8-Br-cAMPS and IL-2 on T lymphocyte proliferation ([1]; CVI patients, 1000 μM Rp-8-Br-cAMPS with IL-2): additive
- Increase in proliferation by Rp-8-Br-cAMPS Fold increase compared to untreated ([1]; T cells from HIV+ asymptomatic patients, n = 8, median (25 to 75% range)): 1.50(1.29–1.73)^b fold
- Increase in proliferation by Rp-8-Br-cAMPS Fold increase compared to untreated ([1]; T cells from HIV+ symptomatic patients, n = 10, median (25 to 75% range)): 1.62(1.48–2.00)^w fold
- Increase in TCR/CD3-induced proliferation by antagonist alone ([1]; T cells from HIV-infected patients, at higher concentrations, FIG. 3D): more than 2 fold
- Reversal of Sp-8-Br-cAMPS inhibition of proliferation by complementary antagonist ([1]; T cells from a HIV-infected patient, FIG. 3C): further increased the proliferation above the levels in untreated cells
- Reversal of Sp-8-Br-cAMPS inhibition of proliferation by complementary antagonist ([1]; T cells from normal blood donors / healthy controls, increasing concentrations): almost completely reversed
- Increase in proliferation by Rp-8-Br-cAMPS Fold increase compared to untreated ([1]; T cells from normal controls, n = 8, median (25 to 75% range)): 1.01(0.93–1.14) fold
- Increase in proliferation by Rp-8-Br-cAMPS Fold increase compared to untreated ([1]; T cells from patients on triple combination therapy, n = 9, median (25 to 75% range)): 1.53(1.11–1.77)^o fold
- Increase in proliferation by Rp-8-Br-cAMPS (fold increase) ([1]; T cells of individual CVI patients #1-#7): 1.73 fold and 2.10 fold and 1.87 fold and 1.34 fold and 1.37 fold and 2.45 fold and 3.67 fold
- Increase in proliferation by Rp-8-Br-cAMPS Fold increase compared to untreated ([1]; T cells of individual HIV-infected patients #1-#18 without protease inhibitor therapy (Table 2a)): 2.81 fold and 2.02 fold and 2.73 fold and 1.48 fold and 1.77 fold and 1.96 fold and 1.5 fold and 1.79 fold and 1.74 fold and 1.3 fold and 1.49 fold and 1.43 fold and 1.46 fold and 1.67 fold and 1.6 fold and 1.27 fold and 1.39 fold and 1.16 fold
- Increase in proliferation by Rp-8-Br-cAMPS Fold increase compared to untreated ([1]; T cells of individual patients #1-#9 receiving highly active antiretroviral therapy (Table 2b)): 2.79 fold and 2.65 fold and 1.77 fold (2×) and 1.53 fold and 1.04 fold and 1.52 fold and 0.98 fold and 1.11 fold
- Increase in proliferation by Rp-8-Br-cAMPS (fold increase) ([1]; median in 7 CVI patients): 1.87^+ fold
- Increase in proliferation by Rp-8-Br-cAMPS (fold increase) ([1]; median in 8 healthy controls): 1.01 fold
- Effect of antagonist alone on stimulated proliferation ([1]; normal T cells / healthy controls): No increased T cell proliferation; also recorded: did not alter proliferation; also recorded: did not further enhance T cell proliferation
- Increase in anti-CD3 stimulated proliferation ([1]; purified T cells, 3 of 7 CVI patients): > 100%
- Increase in anti-CD3 induced lymphocyte proliferation (PBMC; 5 of the 20 CVI patients): less than 40%
- Increase in anti-CD3 induced lymphocyte proliferation (PBMC; 7 of the 20 CVI patients): more than 100%
- Effect on anti-CD3 stimulated lymphocyte proliferation (PBMC; CVI group): significant and concentration-dependent improvement
- Effect on anti-CD3 stimulated lymphocyte proliferation (PBMC; normal blood donors): did not significantly alter proliferation
- percent of BrdU+ CD4+ T lymphocytes (CD4+ T lymphocytes; 8 CVI patients, with antagonist (without: 55.8 (40.7–77.0)%), maximal mostly at 1000 μM): 69.6 (50.5–90.0) %
- Effect on DNA synthesis in CD4+ lymphocytes (CD4+ T lymphocytes; healthy controls): No effect
- Change in percent of BrdU+ CD8+ cells (CD8+ T lymphocytes): no significant increase
- Effect on IL-2 levels in supernatants (IL-2; T lymphocytes from CVI patients): marked and concentration-dependent increase
- Increase in IL-2 level by Rp-8-Br-cAMPS (fold increase) (IL-2; individual CVI patients #1-#7, 1000 μM, 20 h culture): 4.50 fold and 4.37 fold and 2.66 fold and 2.49 fold and 2.34 fold and 1.89 fold and 1.77 fold
- Highest IL-2 level when adding Rp-8-Br-cAMPS (IL-2; individual CVI patients #1-#7, highest at 1000 μM, 20 h culture): 144 pg/mL and 284 pg/mL and 210 pg/mL and 249 pg/mL and 262 pg/mL and 246 pg/mL and 232 pg/mL
- Highest IL-2 level when adding Rp-8-Br-cAMPS (IL-2; [2]): 246^+ pg/mL
- Increase in IL-2 level by Rp-8-Br-cAMPS (fold increase) (IL-2; [2]): 2.50^+ fold
- Highest IL-2 level when adding Rp-8-Br-cAMPS (IL-2; [3]): 799 pg/mL
- Increase in IL-2 level by Rp-8-Br-cAMPS (fold increase) (IL-2; [3]): 1.28 fold
- Effect on IL-2 receptor binding (IL-2 receptor; CD4+ lymphocytes from CVI patients): moderate but significant increase
- Effect on IL-2 receptor binding (IL-2 receptor; cells from healthy controls): No such increase

Source: patent publication US7192932B1, “Use of immunomodulating agents” (Lauras AS, priority 1997, dated 2007)
